# Reference: ChEMBL document CHEMBL5550204, “Discovery of ZJCK-6-46: A Potent, Selective, and Orally Available Dual-Specificity Tyrosine Phosphorylation-Regulated Kinase 1A Inhibitor for the Treatment of Alzheimer's Disease” (J Med Chem, 2024)
# Calls of active or inactive are those of the source. The calls are words filed in the database; no cut-off is given here.
# Assays:
# CDK9/cyclin T1 = CDK9/cyclin T1 (Homo sapiens, UniProt P50750); assay: Inhibition of CDK9/Cyclin T1 (unknown origin) preincubated with enzyme for 10 mins followed by substrate and ATP addition measured after 60 mins by ADP-Glo reagent based assay; assay type: protein-complex assay
# [1] = biological target: Glycogen synthase kinase-3 beta (Homo sapiens, UniProt P49841); assay: Inhibition of GSK-3beta (unknown origin) preincubated with enzyme for 10 mins followed by substrate and ATP addition measured after 60 mins by ADP-Glo reagent based assay
# [2] = Metabolic stability in human liver microsomes assessed as half life at 1 uM incubated upto 45 mins in presence of NADPH by LC-MS/MS analysis; assay type: ADME, Microsome
# [3] = Metabolic stability in human plasma assessed as half life at 2 uM incubated upto 60 mins […] by LC-MS/MS analysis; assay type: ADME, cell-free
# [4] = Permeability of compound at pH 7.4 at 10 uM incubated for 16 hrs by PAMPA-BBB assay based LC-MS/MS analysis
# CYP2C19 = CYP2C19 (Homo sapiens, UniProt P33261); assay: Inhibition of CYP2C19 in human liver microsomes using mephenytoin as substrate at 10 uM preincubated for 10 mins followed by NADPH addition and measured after 40 mins by LC-MS/MS analysis relative to control; assay type: ADME, Microsome; conditions: probe mephenytoin, time 50 min
# CYP3A4 = CYP3A4 (Homo sapiens, UniProt P08684); assay: Inhibition of CYP3A4 in human liver microsomes using midazolam as substrate at 10 uM preincubated for 10 mins followed by NADPH addition and measured after 40 mins by LC-MS/MS analysis relative to control; assay type: ADME, Microsome; conditions: probe midazolam, time 50 min
# [5] = AUC (0 to t) in Sprague-Dawley rat at 2 mg/kg,iv measured upto 24 hrs by LC-MS/MS analysis; assay type: ADME, organism-based; conditions: in vivo
# [6] = AUC (0 to infinity) in Sprague-Dawley rat at 10 mg/kg,po measured upto 24 hrs by LC-MS/MS analysis; assay type: ADME, organism-based; conditions: in vivo
# [7] = MRT (0 to t) in Sprague-Dawley rat at 2 mg/kg,iv measured upto 24 hrs by LC-MS/MS analysis; assay type: ADME, organism-based; conditions: in vivo
# [8] = Cmax in Sprague-Dawley rat at 2 mg/kg,iv measured upto 24 hrs by LC-MS/MS analysis; assay type: ADME, organism-based; conditions: in vivo
# [9] = Cmax in Sprague-Dawley rat at 10 mg/kg,po measured upto 24 hrs by LC-MS/MS analysis; assay type: ADME, organism-based; conditions: in vivo
# [10] = Clearance in Sprague-Dawley rat at 2 mg/kg,iv measured upto 24 hrs by LC-MS/MS analysis; assay type: ADME, organism-based; conditions: in vivo
# [11] = Oral bioavailability in Sprague-Dawley rat at 10 mg/kg measured upto 24 hrs by LC-MS/MS analysis; assay type: ADME, organism-based; conditions: in vivo
# [12] = Drug concentration in Sprague-Dawley rat plasma at 10 mg/kg,po measured after 1 hr by LC-MS/MS analysis; assay type: ADME, organism-based
# [13] = Drug concentration in Sprague-Dawley rat brain at 10 mg/kg,po measured after 1 hr by LC-MS/MS analysis; assay type: ADME, organism-based; conditions: read-out: Ct
# [14] = Drug concentration in Sprague-Dawley rat brain at 10 mg/kg,po measured after 2 hrs by LC-MS/MS analysis; assay type: ADME, organism-based; conditions: read-out: Ct
# [15] = Drug concentration in Sprague-Dawley rat brain at 10 mg/kg,po measured after 4 hrs by LC-MS/MS analysis; assay type: ADME, organism-based; conditions: read-out: Ct
# [16] = Drug concentration in Sprague-Dawley rat brain at 10 mg/kg,po measured after 6 hrs by LC-MS/MS analysis; assay type: ADME, organism-based; conditions: read-out: Ct
# [17] = biological target: Dual specificity tyrosine-phosphorylation-regulated kinase 2 (Homo sapiens, UniProt Q92630); assay: Inhibition of DYRK2 (unknown origin) preincubated with enzyme for 10 mins followed by substrate and ATP addition measured after 60 mins by ADP-Glo reagent based assay
# [18] = biological target: Dual specificity tyrosine-phosphorylation-regulated kinase 3 (Homo sapiens, UniProt O43781); assay: Inhibition of DYRK3 (unknown origin) preincubated with enzyme for 10 mins followed by substrate and ATP addition measured after 60 mins by ADP-Glo reagent based assay
# [19] = biological target: Dual specificity protein kinase CLK4 (Homo sapiens, UniProt Q9HAZ1); assay: Inhibition of CLK4 (unknown origin) preincubated with enzyme for 10 mins followed by substrate and ATP addition measured after 60 mins by ADP-Glo reagent based assay
# [20] = biological target: Dual specificity tyrosine-phosphorylation-regulated kinase 2 (Homo sapiens) (UniProt Q92630); assay: Inhibition of DYRK2 (unknown origin) at 1 uM preincubated with enzyme for 10 mins followed by substrate and ATP addition measured after 60 mins by ADP-Glo reagent based assay relative to control; conditions: time 70.0 min
# [21] = biological target: Dual specificity protein kinase CLK1 (Homo sapiens, UniProt P49759); assay: Inhibition of CLK1 (unknown origin) at 1 uM preincubated with enzyme for 10 mins followed by substrate and ATP addition measured after 60 mins by ADP-Glo reagent based assay relative to control; conditions: time 70.0 min
# [22] = Acute toxicity in C57BL/6 mouse assessed as animal death at 500 mg/kg,po observed after 14 days; assay type: organism-based; conditions: in vivo, 336 h, time 14 day
# [23] = Acute toxicity in C57BL/6 mouse assessed as change in heart weight at 500 mg/kg,po observed after 14 days; assay type: organism-based; conditions: in vivo, 336 h, time 14 day
# [24] = Acute toxicity in C57BL/6 mouse assessed as change in lung weight at 500 mg/kg,po observed after 14 days; assay type: organism-based; conditions: in vivo, 336 h, time 14 day
# [25] = Acute toxicity in C57BL/6 mouse assessed as histopathological change in lung at 500 mg/kg,po observed after 14 days by hematoxylin-eosin staining based analysis; assay type: organism-based; conditions: in vivo, 336 h, time 14 day
# Mus musculus [26] = assay: Antialzheimer activity in okadaic acid-induced cognitive impairment C57BL/6 mouse assessed as decrease in escape latency at 10 to 30 mg/kg,po once daily for 2 weeks by Morris water maze test; assay type: functional, organism-based; conditions: dose 10-30 mg/kg
# Mus musculus [27] = assay: Antialzheimer activity in okadaic acid-induced cognitive impairment C57BL/6 mouse assessed as decrease in learning deficit at 10 to 30 mg/kg,po once daily for 2 weeks by Morris water maze test; assay type: functional, organism-based; conditions: dose 10-30 mg/kg
# Mus musculus [28] = assay: Antialzheimer activity in okadaic acid-induced cognitive impairment C57BL/6 mouse assessed as decrease in memory deficit at 10 to 30 mg/kg,po once daily for 2 weeks by Morris water maze test; assay type: functional, organism-based; conditions: dose 10-30 mg/kg
# Mus musculus [29] = assay: Antialzheimer activity in okadaic acid-induced cognitive impairment C57BL/6 mouse assessed as downregulation of Tau phosphorylation at Thr212 residue in hippocampus at 10 to 30 mg/kg,po once daily for 2 weeks by ELISA; assay type: functional, organism-based; conditions: dose 10-30 mg/kg
# Mus musculus [30] = assay: Antialzheimer activity in okadaic acid-induced cognitive impairment C57BL/6 mouse assessed as downregulation of Tau phosphorylation at Thr212 residue in temporal cortex at 10 to 30 mg/kg,po once daily for 2 weeks by ELISA; assay type: functional, organism-based; conditions: dose 10-30 mg/kg
# Mus musculus [31] = assay: Antialzheimer activity in okadaic acid-induced cognitive impairment C57BL/6 mouse assessed as downregulation of Tau phosphorylation at Thr212 residue in hippocampal CA1 region at 10 to 30 mg/kg,po once daily for 2 weeks by immunohistochemical staining analysis; assay type: functional, organism-based; conditions: dose 10-30 mg/kg
# [32] = Toxicity in okadaic acid-induced cognitive impairment C57BL/6 mouse assessed as change in serum CRE level at 10 to 30 mg/kg,po once daily for 2 weeks; assay type: organism-based; conditions: in vivo, 336 h, dose 10-30 mg/kg
# Dual specificity tyrosine-phosphorylation-regulated kinase 2 (Homo sapiens), sequence (Q92630 whole entry): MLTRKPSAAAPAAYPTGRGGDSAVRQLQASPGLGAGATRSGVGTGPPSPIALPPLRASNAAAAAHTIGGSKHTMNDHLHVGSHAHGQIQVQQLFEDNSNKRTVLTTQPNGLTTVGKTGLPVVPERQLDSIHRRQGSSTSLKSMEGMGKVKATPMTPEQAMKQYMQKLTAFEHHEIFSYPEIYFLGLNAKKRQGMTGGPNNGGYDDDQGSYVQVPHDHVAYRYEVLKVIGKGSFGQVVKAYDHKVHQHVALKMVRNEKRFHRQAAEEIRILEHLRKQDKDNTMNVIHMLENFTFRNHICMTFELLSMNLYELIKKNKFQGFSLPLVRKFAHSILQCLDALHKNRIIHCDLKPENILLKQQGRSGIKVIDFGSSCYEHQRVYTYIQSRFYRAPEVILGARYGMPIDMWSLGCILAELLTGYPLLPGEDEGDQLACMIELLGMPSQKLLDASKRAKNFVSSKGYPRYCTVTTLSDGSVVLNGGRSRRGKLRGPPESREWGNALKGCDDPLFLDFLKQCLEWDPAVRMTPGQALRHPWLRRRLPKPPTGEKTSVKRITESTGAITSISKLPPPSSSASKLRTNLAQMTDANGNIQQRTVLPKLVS
# Dual specificity tyrosine-phosphorylation-regulated kinase 2, sequence (Q92630 whole entry): as above
# CYP3A4, sequence (P08684 whole entry): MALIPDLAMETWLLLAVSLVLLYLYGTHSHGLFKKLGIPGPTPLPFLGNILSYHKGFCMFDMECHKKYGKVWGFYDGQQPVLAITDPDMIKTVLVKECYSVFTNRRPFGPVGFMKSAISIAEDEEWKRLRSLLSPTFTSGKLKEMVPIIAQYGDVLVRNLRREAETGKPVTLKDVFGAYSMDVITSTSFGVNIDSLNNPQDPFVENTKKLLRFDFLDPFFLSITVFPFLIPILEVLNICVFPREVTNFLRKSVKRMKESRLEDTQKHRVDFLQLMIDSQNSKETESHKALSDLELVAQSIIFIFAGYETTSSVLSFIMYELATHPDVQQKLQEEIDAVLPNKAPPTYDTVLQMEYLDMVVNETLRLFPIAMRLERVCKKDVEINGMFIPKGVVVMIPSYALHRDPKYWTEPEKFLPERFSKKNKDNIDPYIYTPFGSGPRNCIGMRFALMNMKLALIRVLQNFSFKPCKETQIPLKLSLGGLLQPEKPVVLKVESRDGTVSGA
# Dual specificity protein kinase CLK1, sequence (P49759 whole entry, looked up): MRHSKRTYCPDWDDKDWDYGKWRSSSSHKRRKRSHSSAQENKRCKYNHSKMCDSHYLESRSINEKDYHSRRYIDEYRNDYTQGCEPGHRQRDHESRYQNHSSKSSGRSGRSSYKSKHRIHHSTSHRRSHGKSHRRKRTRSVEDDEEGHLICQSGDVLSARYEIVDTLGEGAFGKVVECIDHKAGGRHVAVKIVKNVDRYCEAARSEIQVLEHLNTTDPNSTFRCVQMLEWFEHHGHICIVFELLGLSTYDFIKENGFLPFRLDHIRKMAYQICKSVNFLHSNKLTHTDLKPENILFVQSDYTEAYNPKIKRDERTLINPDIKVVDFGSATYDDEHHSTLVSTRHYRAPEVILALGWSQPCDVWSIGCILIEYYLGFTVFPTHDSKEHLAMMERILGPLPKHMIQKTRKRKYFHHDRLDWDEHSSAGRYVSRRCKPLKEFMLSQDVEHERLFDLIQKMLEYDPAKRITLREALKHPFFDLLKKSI
# Glycogen synthase kinase-3 beta, sequence (P49841 whole entry): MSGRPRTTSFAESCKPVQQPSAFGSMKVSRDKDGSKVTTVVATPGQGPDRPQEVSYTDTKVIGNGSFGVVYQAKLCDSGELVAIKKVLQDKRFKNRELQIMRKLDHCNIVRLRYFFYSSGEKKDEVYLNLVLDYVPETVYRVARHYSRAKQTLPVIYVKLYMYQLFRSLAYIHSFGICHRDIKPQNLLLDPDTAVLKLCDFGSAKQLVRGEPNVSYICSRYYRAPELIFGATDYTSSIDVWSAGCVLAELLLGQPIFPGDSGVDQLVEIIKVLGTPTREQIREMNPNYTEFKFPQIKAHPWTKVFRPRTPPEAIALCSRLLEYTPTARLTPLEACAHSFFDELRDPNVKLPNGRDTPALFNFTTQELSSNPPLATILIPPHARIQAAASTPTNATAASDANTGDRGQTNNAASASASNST
# CYP2C19, sequence (P33261 whole entry): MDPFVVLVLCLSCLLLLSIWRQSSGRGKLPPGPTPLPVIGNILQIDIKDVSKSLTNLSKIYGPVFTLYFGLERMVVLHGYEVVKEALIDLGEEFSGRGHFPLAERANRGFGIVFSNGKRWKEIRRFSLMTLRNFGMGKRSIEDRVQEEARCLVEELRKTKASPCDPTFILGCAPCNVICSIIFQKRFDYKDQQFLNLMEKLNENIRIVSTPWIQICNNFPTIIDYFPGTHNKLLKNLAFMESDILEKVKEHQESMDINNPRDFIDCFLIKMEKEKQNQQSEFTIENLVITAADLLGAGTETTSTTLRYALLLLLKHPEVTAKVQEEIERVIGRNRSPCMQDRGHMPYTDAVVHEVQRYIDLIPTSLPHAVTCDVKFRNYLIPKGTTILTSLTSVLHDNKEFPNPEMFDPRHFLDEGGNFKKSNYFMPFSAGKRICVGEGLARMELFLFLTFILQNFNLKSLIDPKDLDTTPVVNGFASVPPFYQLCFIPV
# Dual specificity tyrosine-phosphorylation-regulated kinase 3, sequence (O43781 whole entry): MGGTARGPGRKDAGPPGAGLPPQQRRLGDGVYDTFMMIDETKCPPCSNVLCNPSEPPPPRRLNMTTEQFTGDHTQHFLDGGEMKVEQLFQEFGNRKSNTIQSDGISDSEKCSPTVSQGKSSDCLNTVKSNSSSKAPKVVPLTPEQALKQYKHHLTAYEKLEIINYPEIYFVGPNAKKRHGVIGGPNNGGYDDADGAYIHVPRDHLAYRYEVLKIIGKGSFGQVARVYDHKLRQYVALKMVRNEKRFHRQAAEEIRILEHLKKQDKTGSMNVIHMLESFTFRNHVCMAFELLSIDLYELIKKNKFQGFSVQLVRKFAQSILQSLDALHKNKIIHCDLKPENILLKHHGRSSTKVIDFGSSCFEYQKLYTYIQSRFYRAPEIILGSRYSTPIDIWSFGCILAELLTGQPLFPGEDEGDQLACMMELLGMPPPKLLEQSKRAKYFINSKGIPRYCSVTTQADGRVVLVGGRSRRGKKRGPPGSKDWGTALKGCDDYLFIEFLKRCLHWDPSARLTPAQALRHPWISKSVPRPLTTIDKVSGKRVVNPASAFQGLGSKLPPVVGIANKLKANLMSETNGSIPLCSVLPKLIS
# CDK9/cyclin T1, sequence (O60563 whole entry): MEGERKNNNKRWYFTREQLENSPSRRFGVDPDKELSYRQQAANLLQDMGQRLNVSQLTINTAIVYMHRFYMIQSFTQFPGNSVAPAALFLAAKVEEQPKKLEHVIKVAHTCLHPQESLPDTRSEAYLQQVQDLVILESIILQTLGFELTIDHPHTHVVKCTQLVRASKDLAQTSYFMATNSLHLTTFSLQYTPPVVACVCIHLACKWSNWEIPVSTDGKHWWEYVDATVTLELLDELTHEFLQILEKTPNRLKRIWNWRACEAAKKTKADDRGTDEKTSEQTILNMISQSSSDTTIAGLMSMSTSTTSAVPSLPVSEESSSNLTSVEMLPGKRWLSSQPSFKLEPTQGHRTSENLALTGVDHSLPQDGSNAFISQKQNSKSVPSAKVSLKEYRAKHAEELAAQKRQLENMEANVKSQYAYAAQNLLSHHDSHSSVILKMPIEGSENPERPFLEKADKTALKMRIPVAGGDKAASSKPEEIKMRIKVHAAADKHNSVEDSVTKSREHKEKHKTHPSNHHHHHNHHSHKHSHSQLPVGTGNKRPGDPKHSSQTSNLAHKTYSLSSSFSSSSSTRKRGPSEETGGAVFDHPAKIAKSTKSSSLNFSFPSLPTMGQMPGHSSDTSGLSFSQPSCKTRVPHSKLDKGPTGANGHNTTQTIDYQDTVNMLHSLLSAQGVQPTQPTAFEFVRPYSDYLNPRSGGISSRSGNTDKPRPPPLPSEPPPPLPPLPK
# CDK9/cyclin T1, sequence (P50750 whole entry): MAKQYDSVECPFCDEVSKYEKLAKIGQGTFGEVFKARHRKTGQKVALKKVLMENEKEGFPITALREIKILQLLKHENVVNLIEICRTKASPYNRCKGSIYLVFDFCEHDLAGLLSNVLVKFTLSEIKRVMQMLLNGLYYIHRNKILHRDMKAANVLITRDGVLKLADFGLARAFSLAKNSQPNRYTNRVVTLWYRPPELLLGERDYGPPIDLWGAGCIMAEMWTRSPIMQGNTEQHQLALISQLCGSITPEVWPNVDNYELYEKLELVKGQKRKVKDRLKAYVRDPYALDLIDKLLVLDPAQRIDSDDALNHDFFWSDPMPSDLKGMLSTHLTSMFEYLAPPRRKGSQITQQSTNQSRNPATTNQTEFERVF
# Dual specificity protein kinase CLK4, sequence (Q9HAZ1 whole entry): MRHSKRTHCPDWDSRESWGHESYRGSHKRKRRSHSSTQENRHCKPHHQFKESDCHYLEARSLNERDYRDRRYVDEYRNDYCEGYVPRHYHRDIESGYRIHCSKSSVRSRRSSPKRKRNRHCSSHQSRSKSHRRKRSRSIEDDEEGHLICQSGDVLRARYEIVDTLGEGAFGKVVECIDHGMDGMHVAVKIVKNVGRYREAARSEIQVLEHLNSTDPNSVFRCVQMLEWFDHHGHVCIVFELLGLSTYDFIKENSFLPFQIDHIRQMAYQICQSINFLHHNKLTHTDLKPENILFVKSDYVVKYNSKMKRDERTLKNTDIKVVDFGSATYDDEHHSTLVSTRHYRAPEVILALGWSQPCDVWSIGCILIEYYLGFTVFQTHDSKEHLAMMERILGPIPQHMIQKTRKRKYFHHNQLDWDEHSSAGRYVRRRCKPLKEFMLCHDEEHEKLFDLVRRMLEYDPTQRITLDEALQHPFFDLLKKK
structure (smiles),measurement,setting,value
Cc1ccc2c(-c3ccc4ncnc(N[C@H](CO)c5ccccc5)c4c3)c[nH]c2n1,IC50,CDK9/cyclin T1,> 10 µM
same,IC50,[1],1.42 µM
same,"half-life at […], 1 µM",[2],1.53 h
same,half-life at 2 µM,[3],> 3.33 h
same,"Papp at 16 h, 10 µM",[4],134 nm/s
same,"inhibition at 40 min, 10 µM",CYP2C19,96.9%
same,"inhibition at 40 min, 10 µM",CYP3A4,33.1%
same,AUC(0-t) at 24 h,[5],1.5 µg·h/mL
same,AUC(0-inf),[6],3.01 µg·h/mL
same,MRT last at 24 h,[7],3.81 h
same,Cmax,[8],0.272 µg/mL
same,Cmax,[9],0.23 µg/mL
same,clearance,[10],1.42 L/h/kg
same,bioavailability,[11],39.7%
same,concentration at 1 h,[12],0.353 µg/mL
same,concentration at 1 h,[13],26.9 ng/g
same,concentration at 2 h,[14],16.8 ng/g
same,concentration at 4 h,[15],39.1 ng/g
same,concentration at 6 h,[16],13.1 ng/g
same,IC50,[17],0.0142 µM
same,IC50,[18],0.0175 µM
same,IC50,[19],0.0389 µM
same,inhibition,[20],105%
same,inhibition,[21],99.5%
same,Activity,[22],Non-Toxic
same,Activity,[23],Non-Toxic
same,Activity,[24],Non-Toxic
same,Activity,[25],Non-Toxic
same,Activity,Mus musculus [26],Active
same,Activity,Mus musculus [27],Active
same,Activity,Mus musculus [28],Active
same,Activity,Mus musculus [29],Active
same,Activity,Mus musculus [30],Active
same,Activity,Mus musculus [31],Active
same,Activity,[32],Non-Toxic
